{"source": "paper PMC5736936", "about": "“Xylopine Induces Oxidative Stress and Causes G2/M Phase Arrest, Triggering Caspase-Mediated Apoptosis by p53-Independent Pathway in HCT116 Cells” (Oxidative Medicine and Cellular Longevity, 2017)", "key": {"HCT116 cells [1]": {"tested_on": "HCT116 cells", "test": "Cell viability by trypan blue exclusion assay", "type": "cell-based, human", "conditions": "for reduction of the number of viable cells: HCT116, trypan blue", "text": "(§1) MCF7 (human breast carcinoma), HCT116 (human colon carcinoma), HepG2 (human hepatocellular carcinoma), SCC-9 (human oral squamous cell carcinoma), HSC-3 (human oral squamous cell carcinoma), HL-60 (human promyelocytic leukemia), K-562 (human chronic myelogenous leukemia), B16-F10 (murine melanoma), MRC-5 (human lung fibroblast), WT SV40 MEF (wild-type immortalized mouse embryonic fibroblast), and BAD KO SV40 MEF (BAD gene knockout immortalized mouse embryonic fibroblast) cell lines were obtained from the American Type Culture Collection (ATCC, Manassas, VA, USA). Cells were cultured in complete medium with appropriate supplements as recommended by ATCC. All cell lines were tested for mycoplasma using the Mycoplasma Stain Kit (Sigma-Aldrich) to validate the use of cells free from contamination. Primary cell culture of peripheral blood mononuclear cells (PBMC) was obtained by standard Ficoll density protocol. The Research Ethics Committee of the Oswaldo Cruz Foundation (Salvador, BA, Brazil) approved the experimental protocol (number 031019/2013). Cell viability was examined using trypan blue exclusion assay for all experiments."}, "HCT116 cells [2]": {"tested_on": "HCT116 cells", "test": "Mitochondrial transmembrane potential (rhodamine 123)", "type": "cell-based, human", "conditions": "HCT116, rhodamine 123, 24 h, p < 0.05", "method": "Mitochondrial transmembrane potential was determined by the retention of the dye rhodamine 123 [9]. Cells were incubated with rhodamine 123 (5 μg/mL, Sigma-Aldrich Co.) at room temperature for 15 min in the dark and washed with saline. The cells were then incubated again in saline for 30 min in the dark and cell fluorescence was determined by flow cytometry as described above."}, "[3]": {"tested_on": "BAD KO SV40 MEF (BAD gene knockout immortalized mouse embryonic fibroblast)", "test": "Cytotoxic activity in BAD gene knockout fibroblasts", "type": "cell-based", "conditions": "BAD KO SV40 MEF cell line", "text": "as §1\n(§2) Cell viability was quantified using the alamarBlue assay according to Ahmed et al.. Cells were inserted in 96-well plates for all experiments (7 × 10^4 cells/mL for adherent cells or 3 × 10^5 cells/mL for suspended cells in 100 μL of medium). After 24 h, xylopine was dissolved in dimethyl sulfoxide (DMSO) and added to each well and incubated for 72 h. […] Four (for cell lines) or 24 h (for PBMCs) before the end of incubation, 20 μL of a stock solution (0.312 mg/mL) of the alamarBlue (resazurin, Sigma-Aldrich Co., Saint Louis, MO, USA) was added to each well. Absorbance at 570 nm and 600 nm was measured using the SpectraMax 190 Microplate Reader (Molecular Devices, Sunnyvale, CA, USA), and the drug effect was quantified as the percentage of control absorbance."}, "HCT116 cells [4]": {"tested_on": "HCT116 cells", "test": "Morphological analysis (May-Grünwald-Giemsa)", "type": "cell-based, human", "conditions": "24 and 48 h, DOX 1 μM, OXA 2.5 μM", "method": "To evaluate alterations in morphology, cells were cultured under coverslip and stained with May-Grünwald-Giemsa. Morphological changes were examined by light microscopy using Image-Pro software."}, "[5]": {"tested_on": "caspase-3 in HCT116 cells", "test": "Caspase-3 activation assay (colorimetric, Ac-DEVD-pNA)", "type": "cell-based, human", "conditions": "HCT116, 48 h, p < 0.05", "method": "A Caspase-3 Colorimetric Assay Kit (Sigma-Aldrich Co.) was used to investigate caspase-3 activation in xylopine-treated HCT116 cells based on the cleavage of Ac-DEVD-pNA and the analysis was performed according to the manufacturer's instructions."}, "HCT116 cells [6]": {"tested_on": "HCT116 cells", "test": "Cellular reactive oxygen species levels (DCF-DA)", "type": "cell-based, human", "method": "The levels of reactive oxygen species (ROS) were measured according to previously described using 2′,7′-dichlorofluorescin diacetate (DCF-DA) (Sigma-Aldrich Co.). In brief, cells were treated with xylopine for 1 and 3 h. Then, the cells were collected, washed with saline, and resuspended in FACS tubes with saline containing 5 μM DCF-DA for 30 min. Finally, the cells were washed with saline and the cell fluorescence was determined by flow cytometry as described above. The protection assay using the antioxidant NAC and catalase (Sigma-Aldrich Co.) was performed. In brief, the cells were pretreated for 1 h with 5 mM NAC or 2000 UI catalase and then incubated with xylopine in the established concentration for 1 h. The cells were then trypsinized and the ROS levels were measured as described above."}, "[7]": {"tested_on": "WT SV40 MEF (wild-type immortalized mouse embryonic fibroblast)", "test": "Cytotoxic activity in wild-type fibroblasts", "type": "cell-based", "conditions": "WT SV40 MEF cell line", "text": "as §1, §2"}, "HCT116 cells [8]": {"tested_on": "HCT116 cells", "test": "Cellular GSH level", "type": "cell-based, human", "conditions": "HCT116, 1 h", "method": "A quantification kit for reduced glutathione (L-γ-glutamyl-L-cysteinyl-glycine, GSH, Sigma-Aldrich Co.) was used to investigate cellular GSH level in xylopine-treated HCT116 cells and the analysis was performed according to the manufacturer's instructions."}, "HCT116 cells [9]": {"tested_on": "HCT116 cells", "type": "cell-based, human", "method": "Cells were harvested in a permeabilization solution containing 0.1% Triton X-100 (Sigma Chemical Co., St Louis, MO, USA), 2 μg/mL propidium iodide (Sigma Chemical Co.), 0.1% sodium citrate, and 100 μg/mL RNAse (Sigma Chemical Co.) and incubated in the dark for 15 min at room temperature. Finally, cell fluorescence was measured by flow cytometry on a BD LSRFortessa cytometer using the BD FACSDiva software (BD Biosciences) and FlowJo software 10 (FlowJo, LCC, Ashland, OR, USA)."}, "[10]": {"conditions": "HCT116, XYL 3.5 μM, 24 h incubation"}, "[11]": {"conditions": "HCT116, XYL 3.5 μM, 48 h incubation"}, "[12]": {"conditions": "HCT116, XYL 7 μM, 24 h incubation"}, "[13]": {"conditions": "HCT116, XYL 7 μM, 48 h incubation"}, "[14]": {"conditions": "HCT116, XYL 14 μM, 24 h incubation"}, "[15]": {"conditions": "HCT116, XYL 14 μM, 48 h incubation"}}, "note": "Where two headings read alike, the source gives them in different places."}
{"smiles": "COc1ccc2c(c1)C[C@@H]1NCCc3cc4c(c-2c31)OCO4", "note": "[XYL, xylopine]", "values": [{"measurement": "reduction of the number of viable cells", "setting": "HCT116 cells [1]; 3.5 μM, 24 h", "result": 50.2, "unit": "%"}, {"measurement": "reduction of the number of viable cells", "setting": "HCT116 cells [1]; 3.5 μM, 48 h", "result": 79.9, "unit": "%"}, {"measurement": "reduction of the number of viable cells", "setting": "HCT116 cells [1]; 7 μM, 24 h", "result": 64.4, "unit": "%"}, {"measurement": "reduction of the number of viable cells", "setting": "HCT116 cells [1]; 7 μM, 48 h", "result": 84.6, "unit": "%"}, {"measurement": "reduction of the number of viable cells", "setting": "HCT116 cells [1]; 14 μM, 24 h", "result": 71.8, "unit": "%"}, {"measurement": "reduction of the number of viable cells", "setting": "HCT116 cells [1]; 14 μM, 48 h", "result": 89.4, "unit": "%"}, {"measurement": "number of nonviable cells", "setting": "HCT116 cells [1]; HCT116, trypan blue, 3.5, 7, 14 μM, 24 and 48 h", "result": "No significant increase"}, {"measurement": "mitochondrial depolarization", "setting": "HCT116 cells [2]", "result": "induced mitochondrial depolarization"}, {"measurement": "IC50", "setting": "[3]", "result": 6.4, "unit": "µM"}, {"measurement": "cell morphology", "setting": "HCT116 cells [4]", "result": "reduction in the cell volume, chromatin condensation, and fragmentation of the nuclei"}, {"measurement": "caspase-3 activation", "setting": "[5]", "result": "increased caspase-3 activation"}, {"measurement": "xylopine-induced increase in intracellular ROS level on cotreatment with NAC", "setting": "HCT116 cells [6]; HCT116, 5 mM NAC 1 h, then 14 μM xylopine 1 h", "result": "prevented"}, {"measurement": "xylopine-induced increase in intracellular ROS levels on cotreatment with catalase", "setting": "HCT116 cells [6]; HCT116, 2000 UI catalase 1 h, then 14 μM xylopine 1 h", "result": "prevented"}, {"measurement": "ROS levels", "setting": "HCT116 cells [6]; HCT116, DCF-DA, 1 and 3 h", "result": "caused an increase in the ROS levels"}, {"measurement": "IC50", "setting": "[7]", "result": 8, "unit": "µM"}, {"measurement": "GSH levels", "setting": "HCT116 cells [8]", "result": "decreased"}, {"measurement": "DNA content (%) G0/G1", "setting": "HCT116 cells [9]; [10]", "result": "17.0 ± 7.0^∗ %"}, {"measurement": "DNA content (%) G2/M", "setting": "HCT116 cells [9]; [10]", "result": "57.2 ± 3.5^∗ %"}, {"measurement": "DNA content (%) S", "setting": "HCT116 cells [9]; [10]", "result": "24.7 ± 4.8", "unit": "%"}, {"measurement": "DNA content (%) Sub-G0/G1", "setting": "HCT116 cells [9]; [10]", "result": "6.2 ± 1.9", "unit": "%"}, {"measurement": "DNA content (%) G2/M", "setting": "HCT116 cells [9]; HCT116, XYL 3.5 μM, 24 h incubation, listed as xylopine", "result": 57.2, "unit": "%"}, {"measurement": "DNA content (%) G0/G1", "setting": "HCT116 cells [9]; [11]", "result": "17.0 ± 6.3^∗ %"}, {"measurement": "DNA content (%) G2/M", "setting": "HCT116 cells [9]; [11]", "result": "52.0 ± 6.8^∗ %"}, {"measurement": "DNA content (%) S", "setting": "HCT116 cells [9]; [11]", "result": "11.1 ± 2.2", "unit": "%"}, {"measurement": "DNA content (%) Sub-G0/G1", "setting": "HCT116 cells [9]; [11]", "result": "15.2 ± 1.9", "unit": "%"}, {"measurement": "DNA content (%) G2/M", "setting": "HCT116 cells [9]; HCT116, XYL 3.5 μM, 48 h incubation, listed as xylopine", "result": 52.0, "unit": "%"}, {"measurement": "DNA content (%) G0/G1", "setting": "HCT116 cells [9]; [12]", "result": "14.9 ± 4.2^∗ %"}, {"measurement": "DNA content (%) G2/M", "setting": "HCT116 cells [9]; [12]", "result": "58.5 ± 2.9^∗ %"}, {"measurement": "DNA content (%) S", "setting": "HCT116 cells [9]; [12]", "result": "23.3 ± 3.7", "unit": "%"}, {"measurement": "DNA content (%) Sub-G0/G1", "setting": "HCT116 cells [9]; [12]", "result": "5.1 ± 1.6", "unit": "%"}, {"measurement": "DNA content (%) G2/M", "setting": "HCT116 cells [9]; HCT116, XYL 7 μM, 24 h incubation, listed as xylopine", "result": 58.5, "unit": "%"}, {"measurement": "DNA content (%) G0/G1", "setting": "HCT116 cells [9]; [13]", "result": "10.3 ± 1.3^∗ %"}, {"measurement": "DNA content (%) G2/M", "setting": "HCT116 cells [9]; [13]", "result": "52.7 ± 3.6^∗ %"}, {"measurement": "DNA content (%) S", "setting": "HCT116 cells [9]; [13]", "result": "6.8 ± 2.0", "unit": "%"}, {"measurement": "DNA content (%) Sub-G0/G1", "setting": "HCT116 cells [9]; [13]", "result": "25.9 ± 2.5^∗ %"}, {"measurement": "DNA content (%) G2/M", "setting": "HCT116 cells [9]; HCT116, XYL 7 μM, 48 h incubation, listed as xylopine", "result": 52.7, "unit": "%"}, {"measurement": "DNA content (%) G0/G1", "setting": "HCT116 cells [9]; [14]", "result": "30.5 ± 6.0", "unit": "%"}, {"measurement": "DNA content (%) G2/M", "setting": "HCT116 cells [9]; [14]", "result": "54.0 ± 6.1^∗ %"}, {"measurement": "DNA content (%) S", "setting": "HCT116 cells [9]; [14]", "result": "11.1 ± 1.6", "unit": "%"}, {"measurement": "DNA content (%) Sub-G0/G1", "setting": "HCT116 cells [9]; [14]", "result": "11.3 ± 1.4", "unit": "%"}, {"measurement": "DNA content (%) G2/M", "setting": "HCT116 cells [9]; HCT116, XYL 14 μM, 24 h incubation, listed as xylopine", "result": 54.0, "unit": "%"}, {"measurement": "DNA content (%) G0/G1", "setting": "HCT116 cells [9]; [15]", "result": "14.6 ± 2.6^∗ %"}, {"measurement": "DNA content (%) G2/M", "setting": "HCT116 cells [9]; [15]", "result": "40.8 ± 5.7^∗ %"}, {"measurement": "DNA content (%) S", "setting": "HCT116 cells [9]; [15]", "result": "9.3 ± 1.7", "unit": "%"}, {"measurement": "DNA content (%) Sub-G0/G1", "setting": "HCT116 cells [9]; [15]", "result": "33.4 ± 6.2^∗ %"}, {"measurement": "DNA content (%) G2/M", "setting": "HCT116 cells [9]; HCT116, XYL 14 μM, 48 h incubation, listed as xylopine", "result": 40.8, "unit": "%"}]}
